In patent US20120184562A1, “1,6- AND 1,8-NAPHTHYRIDINES” (priority 2011, published 2012):
Counter-ions that a name gives are not always drawn.

What was measured:
[1] = system: SW620 human colon cancer cells; test: SW620 Cell Viability Assay; assay type: cell-based; conditions: SW-620, 96 h, 4 days incubation, CellTiter-Glo Luminescent Cell Viability Assay, read-out: Cellular EC50 (μM) SW620
Protocol: SW620 Cell Viability Assay
1. Cell Plate Preparation: SW620 human colon cancer cells (known to express DYRK1B), obtained from ATCC, were seeded into 96-well plates at 3×10^3 cells/well in 50 μL of media. • Harvested the required number of cells (counts & viability determined by Guava Viacount). • Centrifuge cells to pellet and removed supernant. • Resuspended in growth media (50 μL/well) & pipetted thoroughly to break up clumps. • Setup for ˜100 wells/plate, therefore, VT=5 mL/plate @ […]. 1A. Some cells (S—) were allowed to attach for 24 hrs, serum starved for 48 hrs, and then followed with drug treatments. Test compound solution were prepared in regular corresponding media supplemented with serum. 2. Test Compound Preparation: Test compounds were solubilized in either DMSO or media and prepared at various stock concentrations. • All compounds were incubated at 37° C. for 30 minutes and vortexed. • (5 mM stocks of test compound were prepared for non-soluble compounds)
• The 10 mM test compound stock was diluted to a concentration of 100× the final Cmax concentration. • Then the test compound stock is diluted 50-fold in media and/or second compound for a final Cmax concentration in the test compound plate. • The Cmax in the test compound plate (2% DMSO) is 2-fold higher than the final Cmax in the cell plate (60 uL titrations were 1:3). 4. Viability Assay: This assay was performed as follows: • Transfer 50 μL of test compound solution per well from the test compound plate onto the cell plate prepared in Step #1. • Mix the plate with treated cells by pipetting up and down three times with 200 μL multi-channel pipette. • Incubate the cells in 5% CO2 incubator @ 37° C. for 4 days. • Run the CellTiter-Glo™ Luminescent Cell Viability Assay.
The results of this assay, given as EC50 values, indicate the concentration of test compound that inhibits tumor cell proliferation by 50%.

Human DYRK1A = biological target: T1, Human DYRK1A (Homo sapiens, UniProt Q13627); test: DYRK1A Kinase TR-FRET (IMAP-Tb) Assay; assay type: biochemical; conditions: TR-FRET (IMAP-Tb); ATP 70 μM; 37° C., 60 minutes; average of multiple runs; read-out: Enzyme IC50 (μM) DYRK1A
T1 construct: purchased Invitrogen PV3997
Description: DYRK1A Kinase TR-FRET (IMAP-Tb) Assay
The kinase TR-FRET (IMAP-Tb) assay uses a fluorescence labeled substrate peptide in the kinase reaction. Upon phosphorylation by the kinase, phosphopeptide is produced, which will be detected by the binding solution provided in IMAP TR-FRET binding kit. After the completion of the kinase reaction, the reaction will be stopped by adding the binding solution containing terbium tracer. This tracer is immobilized on the surface of the IMAP beads, which also contain metal ions on the beads that bind to the phospho-groups of the products. Thus the phosphorylated product of the reaction can enter into close proximity to the tracer, producing resonance energy transfer. Due to the long lifetime of terbium (Tb) fluorescence the detection can be run in time resolved mode, which virtually eliminates fluorescence interference from assay components or compounds.
The TR-FRET signal measurement from this assay, given as an IC50 measurement, is a measure of a test compound's ability to interfere with the phosphorylation of the peptide substrate, that is it inhibits the phosphorylation of the substrate peptide by DYRK1A, and is thus a measure of the test compound's ability to inhibit the activity of DYRK1A.
• 1. Human DYRK1A: from Invitrogen. Part #PV3997 • 2. Substrate Peptide: […] • 3. IMAP TR-FRET IPP Explorer Kit: from Molecular Devices. Part #R8157 • 4. Kinase Assay Buffer (KAB): 10 mM HEPES pH 7.0, 50 mM NaCl, 5 mM MgCl2, 1 mM DTT, 1 mM NaVO4, 200 μg/mL BSA (0.02%) • 5. Assay Plate: Remp polypropylene clear 384-well microplate. […] Detection Plate: Costa black 384-well microplate. […] Transfer 1.5 μL of 20× compound solution to each well of an assay plate. • 2. Add to each well 22.5 μL of KAB Buffer. • 3. Add to each well 3 μL of the solution of DYRK1A and ATP. […] Add to each well 3 μL of the substrate peptide. The assay concentration is 1.0 μM • 5. Incubate the assay plates at 37° C. for 60 minutes. • 6. Add 18 μL of Detection Solution (1:800 diluted Progress bead stock, 1:400 diluted Tb stock, 80% Buffer A, and 20% Buffer B) into each well of detection plates. • 7. Transfer 6 μL of assay solution from the assay plate to the detection plate. • 8. Shake detection plates for 30 minutes. • 9. Read plates in Envision with wavelength set at excitation 340 nm for Tb, emission 490 nm, and […].

Human DYRK1B = biological target: T2, Human DYRK1B (Homo sapiens, UniProt Q9Y463); test: DYRK1B Kinase TR-FRET (IMAP-Tb) Assay; assay type: biochemical; conditions: TR-FRET (IMAP-Tb); ATP 70 μM; 37° C., 60 minutes; average of multiple runs; read-out: Enzyme IC50 (μM) DYRK1B
T2 construct: purchased Invitrogen PR8350B (former PV4649)
T2 sequence (Q9Y463 whole entry): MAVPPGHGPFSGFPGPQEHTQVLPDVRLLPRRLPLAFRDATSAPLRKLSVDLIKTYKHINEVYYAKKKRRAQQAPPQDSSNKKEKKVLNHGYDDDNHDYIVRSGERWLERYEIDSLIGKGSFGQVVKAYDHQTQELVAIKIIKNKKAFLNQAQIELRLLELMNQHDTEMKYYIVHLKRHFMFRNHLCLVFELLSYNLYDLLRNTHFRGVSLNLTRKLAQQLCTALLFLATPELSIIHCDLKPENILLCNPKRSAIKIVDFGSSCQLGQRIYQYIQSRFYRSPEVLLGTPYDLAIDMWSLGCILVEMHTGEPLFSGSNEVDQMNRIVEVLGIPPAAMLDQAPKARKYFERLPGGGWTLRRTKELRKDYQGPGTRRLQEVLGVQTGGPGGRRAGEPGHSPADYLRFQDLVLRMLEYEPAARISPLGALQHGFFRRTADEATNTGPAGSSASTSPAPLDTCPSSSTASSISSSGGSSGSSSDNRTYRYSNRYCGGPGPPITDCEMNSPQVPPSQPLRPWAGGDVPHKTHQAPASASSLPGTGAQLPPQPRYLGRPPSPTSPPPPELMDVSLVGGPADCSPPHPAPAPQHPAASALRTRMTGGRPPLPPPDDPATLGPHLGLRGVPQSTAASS
Description: DYRK1B Kinase TR-FRET (IMAP-Tb) Assay The kinase TR-FRET (IMAP-Tb) assay uses a fluorescence labeled substrate peptide in the kinase reaction. Upon phosphorylation by the kinase, phosphopeptide is produced, which will be detected by the binding solution provided in IMAP TR-FRET binding kit. After the completion of the kinase reaction, the reaction will be stopped by adding the binding solution containing terbium tracer. This tracer is immobilized on the surface of the IMAP beads, which also contain metal ions on the beads that bind to the phospho-groups of the products. Thus the phosphorylated product of the reaction can enter into close proximity to the tracer, producing resonance energy transfer. Due to the long lifetime of terbium (Tb) fluorescence the detection can be run in time resolved mode, which virtually eliminates fluorescence interference from assay components or compounds. The TR-FRET signal measurement from this assay, given as an IC50 measurement, is a measure of a test compound's ability to interfere with the phosphorylation of the peptide substrate, that is it inhibits the phosphorylation of the substrate peptide by DYRK1B, and is thus a measure of the test compound's ability to inhibit the activity of DYRK1B. […] Human DYRK1B: from Invitrogen. Part #PR8350B (former PV4649) • 2. Substrate Peptide: in-house synthesized: RRRFRPASPLRGPPK • 3. IMAP TR-FRET IPP Explorer Kit: from Molecular Devices. Part #R8157 • 4. Kinase Assay Buffer (KAB): 10 mM HEPES pH 7.0, 50 mM NaCl, 5 mM MgCl2, 1 mM DTT, 1 mM NaVO4, 200 μg/mL BSA (0.02%) • 5. Assay Plate: Remp polypropylene clear 384-well microplate. Cat#23490-102 • 6. Detection Plate: Costa black 384-well microplate. Cat #3710 Assay Procedure: This assay was performed as follows: • 1. Transfer 1.5 μL of 20× compound solution to each well of an assay plate. • 2. Add to each well 22.5 μL of KAB Buffer. • 3. Add to each well 3 μL of the solution of DYRK1B and ATP. […] Add to each well 3 μL of the substrate peptide. The assay concentration is 1.0 μM • 5. Incubate the assay plates at 37° C. for 60 minutes. • 6. Add 18 μL of Detection Solution (1:800 diluted Progress bead stock, 1:400 diluted Tb stock, 80% Buffer A, and 20% Buffer B) into each well of detection plates. • 7. Transfer 6 μL of assay solution from the assay plate to the detection plate. • 8. Shake detection plates for 30 minutes. • 9. Read plates in Envision with wavelength set at excitation 340 nm for Tb, emission 490 nm, and […] 520 nm. • 10. Calculation: TR-FRET Signal=(Reading at […]/Reading at 490 nM)×2000000

| Structure (SMILES) | EC50 [1] [µM] | IC50 (Human DYRK1A) [µM] | IC50 (Human DYRK1B) [µM] |
| --- | --- | --- | --- |
| COc1cc2[nH]c(=O)c(C(=O)Nc3cc(C(=O)NC(CCN)c4ccsc4)ccc3C)cc2cn1 (stereo not drawn) [Example 63, 7-Methoxy-2-oxo-1,2-dihydro-[1,6]naphthyridine-3-carboxylic acid [5-(3-amino-1-thiophen-3-yl-propylcarbamoyl)-2-methyl-phenyl]-amide] | 0.205 | 0.0046 | 0.023 |
| COc1cc2[nH]c(=O)c(C(=O)Nc3cc(C(=O)NC(CCN)c4cccc(Cl)c4)ccc3Cl)cc2cn1 (stereo not drawn) [Example 67, 7-Methoxy-2-oxo-1,2-dihydro-[1,6]naphthyridine-3-carboxylic acid {5-[3-amino-1-(3-chloro-phenyl)-propylcarbamoyl]-2-chloro-phenyl}-amide; hydrochloride] | 0.103 | 0.00952 | 0.0854 |
| COc1ccc2cc(C(=O)Nc3cc(C(=O)NCc4cccc(Cl)c4)ccc3C)c(=O)[nH]c2n1 [Example 99, N-(5-(3-Chlorobenzylcarbamoyl)-2-methylphenyl)-7-methoxy-2-oxo-1,2-dihydro-1,8-naphthyridine-3-carboxamide] | > 10 | 0.123 | 0.235 |
| COc1cc2[nH]c(=O)c(C(=O)Nc3cc(C(=O)NC(CN)c4ccsc4)ccc3C)cc2cn1 (stereo not drawn) [Example 59, 7-Methoxy-2-oxo-1,2-dihydro-[1,6]naphthyridine-3-carboxylic acid [5-(2-amino-1-thiophen-3-yl-ethylcarbamoyl)-2-methyl-phenyl]-amide; hydrochloride] | 0.299 | 0.0113 | 0.0308 |
| COc1cc2[nH]c(=O)c(C(=O)Nc3cc(C(=O)NCc4cccs4)ccc3C)cc2cn1 [Example 37, 7-Methoxy-2-oxo-1,2-dihydro-[1,6]naphthyridine-3-carboxylic acid {2-methyl-5-[(thiophen-2-ylmethyl)-carbamoyl]-phenyl}-amide] | 0.47 | 0.588 | 0.917 |
| COc1ccc2cc(C(=O)Nc3cc(C(=O)NC(CCN)c4ccccc4)ccc3Cl)c(=O)[nH]c2n1 (stereo not drawn) [Example 101, N-(5-(3-Amino-1-phenylpropylcarbamoyl)-2-chlorophenyl)-7-methoxy-2-oxo-1,2-dihydro-1,8-naphthyridine-3-carboxamide] | 0.0273 | 0.0392 | 0.0527 |
| COc1cc2[nH]c(=O)c(C(=O)Nc3cc(C(=O)NC(CN)c4cccc(Cl)c4)ccc3C)cc2cn1 (stereo not drawn) [Example 57, 7-Methoxy-2-oxo-1,2-dihydro-[1,6]naphthyridine-3-carboxylic acid {5-[2-amino-1-(3-chloro-phenyl)-ethylcarbamoyl]-2-methyl-phenyl}-amide; hydrochloride] | 0.496 | 0.0512 | 0.146 |
| COc1cc2[nH]c(=O)c(C(=O)Nc3cc(C(=O)NCc4ccsc4)ccc3Cl)cc2cn1 [Example 43, 7-Methoxy-2-oxo-1,2-dihydro-[1,6]naphthyridine-3-carboxylic acid {2-chloro-5-[(thiophen-3-ylmethyl)-carbamoyl]-phenyl}-amide] | > 10 | 0.028 | 0.041 |
| COc1cc2[nH]c(=O)c(C(=O)Nc3cc(C(=O)NC(CN)c4ccccc4)ccc3C)cc2cn1 (stereo not drawn) [Example 55, 7-Methoxy-2-oxo-1,2-dihydro-[1,6]naphthyridine-3-carboxylic acid [5-(2-amino-1-phenyl-ethylcarbamoyl)-2-methyl-phenyl]-amide; hydrochloride] | 0.68 | 0.0506 | 0.0915 |
| COc1cc2[nH]c(=O)c(C(=O)Nc3cc(C(=O)NC(CCN)c4ccccc4)ccc3Cl)cc2cn1 (stereo not drawn) [Example 69, 7-Methoxy-2-oxo-1,2-dihydro-[1,6]naphthyridine-3-carboxylic acid [5-(3-amino-1-phenyl-propylcarbamoyl)-2-chloro-phenyl]-amide; hydrochloride] | 0.256 | 0.0124 | 0.0137 |
| COc1ccc2cc(C(=O)Nc3cc(C(=O)NCc4cccc(Cl)c4)ccc3Cl)c(=O)[nH]c2n1 [Example 95, N-(2-Chloro-5-(3-chlorobenzylcarbamoyl)phenyl)-7-methoxy-2-oxo-1,2-dihydro-1,8-naphthyridine-3-carboxamide] | 1.24 | 0.019 | 0.047 |
| COC(=O)c1ccc(Cl)c(NC(=O)c2cc3cnc(OC)cc3[nH]c2=O)c1 [Example 30, 4-Chloro-3-[(7-methoxy-2-oxo-1,2-dihydro-[1,6]naphthyridine-3-carbonyl)-amino]-benzoic acid methyl ester] | > 10 | 0.135 | 0.119 |
